Patent US4124369A, “Combating fungi and controlling plant growth with 1-amido-1-azolyl-2-hydroxy- or -keto-alkanes” (Bayer Aktiengesellschaft, priority 1976, dated 1978)

System: soya bean plants
Assay: Influence on growth/soya beans
Type: in vivo
Details: 0.05%; footnote *
Excerpt: influence on growth/soya beans
(§1) Solvent: 10 parts by weight of methanol
(§2) Emulsifier: 2 parts by weight of polyoxyethylene sorbitan monolaurate
To prepare a suitable preparation of active compound, 1 part by weight of active compound was mixed with the stated amounts of solvent and emulsifier and the mixture was made up to the desired concentration with water.
Young soya bean plants, in the stage in which the first secondary leaves had unfolded, were sprayed with the preparation of active compound until dripping wet. After 3 weeks, the additional growth was measured and the inhibition of growth in % of the additional growth of the control plants was calculated. 0% denoted growth corresponding to that of the control plants. Positive values characterized promotion of growth compared to the control plants while negative values corrrespondingly indicated an inhibition of growth.
The active compounds, concentrations of the active compounds and results can be seen from the table which follows: […]

For CC(C)(C)C(=O)C(NC(=O)COc1ccc(Cl)cc1Cl)n1ccnc1 (centres unmarked) [drawing 38], the “Influence on growth, note on leaves” value was “dark green leaves”.

System: Fusicladium dendriticum
Assay: Fusicladium test (apple)/protective
Type: in vivo, Fusicladium dendriticum (apple scab) on apple seedlings
Details: 0.0025% active compound; protective; 15 days after inoculation; 0% = no infection, 100% = completely infected
Method: fusicladium test (apple)/Protective Solvent: 4.7 parts by weight of acetone Emulsifier: 0.3 part by weight of alkylaryl polyglycol ether Water: 95 parts by weight. The amount of active compound required for the desired concentration of the active compound in the spray liquid was mixed with the stated amount of solvent, and the concentrate was diluted with the stated amount of water which contained with stated additions. Young apple seedlings in the 4-6 leaved stage were sprayed with the spray liquid until dripping wet. The plants remained in a greenhouse for 24 hours at 20° C. and at a relative atmospheric humidity of 70%. They were then inoculated with an aqueous conidium suspension of the apple scab causative organism (Fusicladium dendriticum) and incubated for 18 hours in a humidity chamber at 18°-20° C. and at a relative atmospheric humidity of 100%. The plants were then brought into a greenhouse for 14 days. 15 days after inoculation, the infection of the seedlings was determined. The ratings obtained were converted to percent infection. 0% meant no infection; 100% meant that the plants were completely infected. The active compounds, the concentrations of the active compounds and the results can be seen from the following table: […]

In order of rising “Infection in % at an active compound concentration of 0.0025%” value:
1. CC(C)(C)C(=O)C(NC(=O)c1ccc(Cl)cc1)n1cncn1 (centres unmarked) [Compound 1, 1-(p-chlorobenzamido)-3,3-dimethyl-1-(1,2,4-triazol-1-yl) butan-2-one]  50%
2. c1ccc(C(c2ccccc2)(c2ccccc2)n2cncn2)cc1 [A, triphenyl-1,2,4-triazol-1-yl-methane, reference compound]  83%

System: barley plants
Assay: Inhibition of growth/barley
Type: in vivo
Details: 0.05%; 100% = growth stopped, 0% = growth of untreated control
Excerpt: Inhibition of growth/barley
as §1, §2
To prepare a suitable preparation of active compound, 1 part by weight of active compound was mixed with the stated amount of solvent and emulsifier and the mixture was made up to the desired concentration with water.
Young barley plants, in the 2-leaf stage, were sprayed with the preparation of active compound until dripping wet. After the untreated control plants had reached a growth height of about 60 cm, the additional growth of all the plants was measured and the inhibition of growth in % of the additional growth of the control plants was calculated. 100% meant that growth had stopped and 0% denoted a growth corresponding to that of the untreated control plants.
The active compounds, concentrations of the active compounds and results can be seen from the table which follows.

In the case of CC(C)(C)C(=O)C(NC(=O)COc1ccc(Cl)cc1Cl)n1ccnc1 (centres unmarked) [drawing 41], the “Inhibition of growth in %” value is reported as 45%.

System: fungi
Assay: not given
Details: German Offenlegungsschrift 1,795,249; cited from earlier work

For c1ccc(C(c2ccccc2)(c2ccccc2)n2cncn2)cc1 [A, triphenyl-1,2,4-triazol-1-yl-methane, reference compound], the “fungicidal activity (prior art)” value is given as “good fungicidal activity”.

Same assay, conditions: especially low amounts and low concentrations; cited from earlier work

For c1ccc(C(c2ccccc2)(c2ccccc2)n2cncn2)cc1 [A, triphenyl-1,2,4-triazol-1-yl-methane, reference compound], the “action at low amounts and low concentrations (prior art)” value is listed as “not always entirely satisfactory”.

System: Erysiphe graminis var. hordei
Assay: Powdery mildew of barley test/systemic (seed treatment)
Type: in vivo, Erysiphe graminis var. hordei on barley
Details: 25% by weight active compound in the dressing, 10 g dressing/kg of seed, systemic, 0% = no infection
Method: powdery mildew of barley (Erysiphe graminis var.hordei)/systemic (fungal disease of cereal shoots) The active compounds were used as pulverulent seed treatment agents. They were prepared by extending the particular active compound with a mixture of equal parts by weight of talc and kieselguhr to give a finely pulverulent mixture of the desired concentration of active compound. For the treatment of seed, barley seed was shaken with the extended active compound in a closed glass bottle. The seed was sown at the rate of 3 × 12 grains in flowerpots, 2 cm deep in a mixture of one part by volume of Fruhstorfer standard soil and one part by volume of quartz sand. The germination and emergence took place under favorable conditions in a greenhouse. 7 days after sowing, when the barley plants have developed their first leaf, they were dusted with fresh spores of Erysiphe graminis var. hordei and grown on at 21°-22° C. and 80-90% relative atmospheric humidity and 16 hours' exposure to light. The typical mildew pustules formed on the leaves over the course of 6 days. The degree of infection was expressed as a percentage of the infection of the untreated control plants. Thus, 0% denoted no infection and 100% denoted the same degree of infection as in the case of the untreated control. […] The active compounds and concentrations of active compound in the seed treatment agent, as well as the amount used of the latter, and the percentage infection with mildew can be seen from the table which follows: […]

In order of rising “Infection in % of the untreated control” value:
1. CC(C)(C)C(=O)C(NC(=O)c1ccccc1)n1cncn1 (centres unmarked) [drawing 30]  0.0%
2. CC(C)(C)C(=O)C(NC(=O)Cc1ccccc1)n1cncn1 (centres unmarked) [drawing 34]  0.0%
3. CC(C)(C)C(=O)C(NC(=O)c1ccccc1Cl)n1cncn1 (centres unmarked) [drawing 29]  0.0%
4. CC(C)(C)C(O)C(NC(=O)c1ccccc1)n1cncn1 (centres unmarked) [drawing 35]  17.5%
5. CC(C)(C)C(=O)NC(C(=O)C(C)(C)C)n1cncn1 (centres unmarked)  25.0%
6. CC(C)(C)C(O)C(NC(=O)c1cc(Cl)ccc1Cl)n1cncn1 (centres unmarked) [drawing 33]  25.0%
7. CC(C)(C)C(=O)C(NC(=O)c1cccc(Cl)c1)n1ccnc1 (centres unmarked) [drawing 32]  50.0%
8. CC(C)(C)C(=O)C(NC(=O)Cc1ccccc1)n1ccnc1 (centres unmarked)  50.0%
9. CC(C)(C)C(=O)C(NC(=O)c1ccccc1Cl)n1ccnc1 (centres unmarked)  55.0%
10. CC(C)(C)C(O)C(NC(=O)c1ccccc1Cl)n1ccnc1 (centres unmarked) [drawing 31]  58.8%
11. c1ccc(C(c2ccccc2)(c2ccccc2)n2cncn2)cc1 [drawing 27, reference compound]  88.8%

System: Podosphaera leucotricha
Assay: Podosphaera test (apple)/protective
Type: in vivo
Details: 0.00125% active compound; protective; 10 days after inoculation; 0% = no infection, 100% = completely infected
Method: podosphaera test (apple)/protective Solvent: 4.7 parts by weight of acetone Emulsifier: 0.3 part by weight of alkylaryl polyglycol ether Water: 95 parts by weight The amount of active compound required for the desired concentration of the active compound in the spray liquid was mixed with the stated amount of solvent, and the concentrate was diluted with the stated amount of water which contained the stated additions. Young apple seedlings in the 4-6 leaved stage were sprayed with the spray liquid until dripping wet. The plants remained in a greenhouse for 24 hours at 20° C. and at a relative atmospheric humidity of 70%. They were then inoculated by dusting with conidia of the apple powdery mildew causative organism (Podosphaera leucotricha) and placed in a greenhouse at a temperature of 21°-23° C. and at a relative atmospheric humidity of about 70%. 10 days after the inoculation, the infection of the seedlings was determined. The ratings obtained were converted to percent infection. 0% meant no infection: 100% meant that the plants were completely infected. The active compounds, the concentrations of the active compounds and the results can be seen from the following table: […]

In order of rising “Infection in % at an active compound concentration of 0.00125%” value:
1. CC(C)(C)C(=O)C(NC(=O)c1ccc(Cl)cc1)n1cncn1 (centres unmarked) [Compound 1, 1-(p-chlorobenzamido)-3,3-dimethyl-1-(1,2,4-triazol-1-yl) butan-2-one]  50%
2. c1ccc(C(c2ccccc2)(c2ccccc2)n2cncn2)cc1 [A, triphenyl-1,2,4-triazol-1-yl-methane, reference compound]  85%

System: Erysiphe graminis var. hordei
Assay: Shoot treatment test/powdery mildew of cereals/protective
Type: in vivo, Erysiphe graminis var. hordei on barley (Amsel variety)
Details: 0.01% by weight active compound in the spray liquor; protective; 6 days; 0% = no infection
Method: shoot treatment test/powdery mildew of cereals/protective (leaf-destructivemycosis)
To produce a suitable preparation of active compound, 0.25 part by weight of active compound was taken up in 25 parts by weight of dimethylformamide and 0.06 part by weight of emulsifier alkylarylpolyglycol ether and then 975 parts by weight of water were added. The concentration was diluted with water to the desired final concentration of the spray liquor.
To test for protective activity, single-leaved young barley plants of the Amsel variety were sprayed with the preparation of active compound until dew-moist. After drying, the barley plants were dusted with spores of Erysiphe graminis var. hordei.
After 6 days' dwell time of the plants at a temperature of 21°-22° C. and 80-90% atmospheric humidity the occurrence of mildew pustules on the plants was evaluated. The degree of infection was expressed as a percentage of the infection of the untreated control plants. 0% denoted no infection and 100% denoted that same degree of infection as in the case of the untreated control.
The active compounds, the concentrations of the active compounds in the spray liquor and degrees of infection can be seen from the table which follows: […]

In order of rising “Infection in % of the untreated control” value:
1. CC(C)(C)C(=O)C(NC(=O)c1ccc(Cl)cc1)n1cncn1 (centres unmarked) [drawing 14]  0.0%
2. CC(C)(C)C(=O)C(NC(=O)COc1ccccc1)n1cncn1 (centres unmarked)  32.5%
3. c1ccc(C(c2ccccc2)(c2ccccc2)n2cncn2)cc1 [drawing 13, reference compound]  100.0%

Same assay, conditions: 0.025% by weight active compound in the spray liquor; protective; 6 days; 0% = no infection

In order of rising “Infection in % of the untreated control” value:
1. CC(C)(C)C(=O)C(NC(=O)c1ccccc1)n1ccnc1 (centres unmarked)  12.5%
2. CC(C)(C)C(=O)C(NC(=O)c1cc(Cl)ccc1Cl)n1ccnc1 (centres unmarked)  21.3%
3. CC(C)(C)C(=O)C(NC(=O)c1cccc(Cl)c1)n1ccnc1 (centres unmarked) [drawing 20]  28.8%
4. CC(C)(C)C(O)C(NC(=O)c1ccccc1Cl)n1ccnc1 (centres unmarked) [drawing 19]  28.8%
5. CC(C)(C)C(=O)NC(C(=O)C(C)(C)C)n1ccnc1 (centres unmarked)  30.0%
6. CC(C)(C)C(O)C(NC(=O)c1ccccc1)n1cncn1 (centres unmarked) [drawing 25]  40.0%
7. CC(C)(C)C(=O)C(NC(=O)Cc1ccccc1)n1cncn1 (centres unmarked) [drawing 24]  40.0%
8. CC(C)(C)C(O)C(NC(=O)c1cc(Cl)ccc1Cl)n1cncn1 (centres unmarked) [drawing 23]  40.0%
9. CC(C)(C)C(=O)C(NC(=O)c1ccccc1Cl)n1cncn1 (centres unmarked) [drawing 16]  50.0%
10. CC(C)(C)C(=O)C(NC(=O)c1cc(Cl)ccc1Cl)n1cncn1 (centres unmarked)  50.0%
11. c1ccc(C(c2ccccc2)(c2ccccc2)n2cncn2)cc1 [drawing 13, reference compound]  100.0%
12. CC(C)(C)C(=O)C(NC(=O)c1ccccc1)n1cncn1 (centres unmarked) [drawing 18]  500%

System: tobacco plants
Assay: Inhibition of the growth of side shoots of tobacco
Type: in vivo
Details: 0.2%; after 3 weeks; 100% = absence of side shoots
Excerpt: inhibition of the growth of side shoots of tobacco
as §1
Emulsifier: 2 parts by weight of polyoxyethylene-sorbitan monolaurate
To prepare a suitable preparation of active compound, 1 parts by weight of active compound was mixed with the stated amounts of solvent and emulsifier and the mixture was made up to the desired concentration with water.
The shoot tips of about 50 cm high tobacco plants were broken off. On the following day, the plants were sprayed with the preparations of active compound until dripping wet. After 3 weeks, the side shoots which had formed during this time were broken off. All the side shoots of one treatment were weighed. The weight of the side shoots of the treated plants was compared with the weight of the side shoots of the untreated control plant. 100% inhibition denoted the absence of side shoots and 0% denoted a growth of side shoots which correspond to that of the control plants.
The active compounds, the concentrations of the active compounds and results can be seen from the table which follows: […]

For CC(C)(C)C(=O)C(NC(=O)COc1ccc(Cl)cc1Cl)n1ccnc1 (centres unmarked) [drawing 42], the “Inhibition in % (growth of side shoots)” value was 97%.
